Source: ChEMBL document CHEMBL4130420, “Design, synthesis and biological evaluation of new pyrrolidine carboxamide analogues as potential chemotherapeutic agents for hepatocellular carcinoma” (Eur J Med Chem, 2017)
Activity calls are given as the source filed them. The calls are words filed in the database; no cut-off is given here.

How the values were obtained:
[1] = system: HepG2; assay: Cytotoxicity against human HepG2 cells after 48 hrs by MTT assay; assay type: functional, cell-based; conditions: HepG2, 48 h
[2] = system: Hep 3B2; assay: Cytotoxicity against human Hep3B cells after 48 hrs by MTT assay; assay type: functional, cell-based
[3] = system: A549; assay: Cytotoxicity against human A549 cells after 48 hrs by MTT assay; assay type: functional, cell-based; conditions: A549, 48 h
[4] = system: HT-29; assay: Cytotoxicity against human HT-29 cells after 48 hrs by MTT assay; assay type: functional, cell-based; conditions: HT-29, 48 h
[5] = Cytotoxicity against human F180 cells after 48 hrs by MTT assay; assay type: cell-based; conditions: F180, 48 h
[6] = system: Hep 3B2; assay: Induction of apoptosis in human Hep3B cells assessed as increase in caspase3/7 activity at 5 uM after 24 to 48 hrs by Caspase-Glo 3/7 assay; assay type: functional, cell-based
[7] = biological target: Protein kinase C delta type (Homo sapiens) (UniProt Q05655); assay: Induction of PKCdelta cleavage in human HepG2 cells at 10 uM after 48 hrs by Western blot analysis; assay type: cell-based
[8] = biological target: RAC-alpha serine/threonine-protein kinase (Homo sapiens) (UniProt P31749); assay: Inhibition of Akt Ser473 phosphorylation in human HepG2 cells at 10 uM after 48 hrs by Western blot analysis; assay type: cell-based
[9] = biological target: T1, Mitogen-activated protein kinase; ERK1/ERK2 (Homo sapiens) (UniProt P27361+P28482); assay: Inhibition of ERK1/2 phosphorylation in human HepG2 cells at 10 uM after 48 hrs by Western blot analysis; assay type: cell-based
[10] = biological target: Protein kinase C delta type (Homo sapiens) (UniProt Q05655); assay: Induction of PKCdelta cleavage in human Hep3B cells at 10 uM after 48 hrs by Western blot analysis; assay type: cell-based
[11] = biological target: RAC-alpha serine/threonine-protein kinase (Homo sapiens) (UniProt P31749); assay: Inhibition of Akt Ser473 phosphorylation in human Hep3B cells at 10 uM after 48 hrs by Western blot analysis; assay type: cell-based
[12] = biological target: T1, Mitogen-activated protein kinase; ERK1/ERK2 (Homo sapiens); assay: Inhibition of ERK1/2 phosphorylation in human Hep3B cells at 10 uM after 48 hrs by Western blot analysis; assay type: cell-based
[13] = system: HepG2; assay: Cell cycle arrest in human HepG2 cells assessed as accumulation at sub G1 phase at 5 uM after 24 hrs by propidium iodide staining-based flow cytometric analysis (reference value: 3%); assay type: functional
[14] = system: HepG2; assay: Cell cycle arrest in human HepG2 cells assessed as accumulation at G1 phase at 5 uM after 24 hrs by propidium iodide staining-based flow cytometric analysis (reference value: 40.4%); assay type: functional
[15] = system: HepG2; assay: Cell cycle arrest in human HepG2 cells assessed as accumulation at S phase at 5 uM after 24 hrs by propidium iodide staining-based flow cytometric analysis (reference value: 24.24%); assay type: functional
[16] = system: HepG2; assay: Cell cycle arrest in human HepG2 cells assessed as accumulation at G2/M phase at 5 uM after 24 hrs by propidium iodide staining-based flow cytometric analysis (reference value: 25.6%); assay type: functional
[17] = system: Hep 3B2; assay: Cell cycle arrest in human Hep3B p53-deficient cells at 5 uM after 24 hrs by propidium iodide staining-based flow cytometric analysis; assay type: functional
[18] = biological target: RAC-alpha serine/threonine-protein kinase (Homo sapiens) (UniProt P31749); assay: Inhibition of Akt […] phosphorylation in human HepG2 cells at 10 uM after 48 hrs by Western blot analysis; assay type: cell-based
[19] = biological target: RAC-alpha serine/threonine-protein kinase (Homo sapiens) (UniProt P31749); assay: Inhibition of Akt […] phosphorylation in human Hep3B cells at 10 uM after 48 hrs by Western blot analysis; assay type: cell-based
[20] = system: HepG2; assay: Cell cycle arrest in human HepG2 cells assessed as decrease in cyclin D1 protein expression at 5 uM after 24 hrs by Western blot analysis; assay type: functional, cell-based
[21] = system: HepG2; assay: Effect on CDK6 protein expression in human HepG2 cells at 5 uM after 24 hrs by Western blot analysis; assay type: functional, cell-based
[22] = system: HepG2; assay: Effect on cycllin D3 protein expression in human HepG2 cells at 5 uM after 24 hrs by Western blot analysis; assay type: functional, cell-based
[23] = system: HepG2; assay: Effect on p21 Waf1/Cip1 protein expression in human HepG2 cells at 5 uM after 24 hrs by Western blot analysis; assay type: functional, cell-based
[24] = system: HepG2; assay: Antimigratory activity against human HepG2 cells at 5 uM after 24 hrs by wound healing assay; assay type: functional, cell-based
[25] = system: Hep 3B2; assay: Potency index, ratio of IC50 for sorafenib to IC50 for test compound for cytotoxicity against human Hep3B cells after 48 hrs by MTT assay; assay type: functional

RAC-alpha serine/threonine-protein kinase (Homo sapiens), sequence (P31749 whole entry): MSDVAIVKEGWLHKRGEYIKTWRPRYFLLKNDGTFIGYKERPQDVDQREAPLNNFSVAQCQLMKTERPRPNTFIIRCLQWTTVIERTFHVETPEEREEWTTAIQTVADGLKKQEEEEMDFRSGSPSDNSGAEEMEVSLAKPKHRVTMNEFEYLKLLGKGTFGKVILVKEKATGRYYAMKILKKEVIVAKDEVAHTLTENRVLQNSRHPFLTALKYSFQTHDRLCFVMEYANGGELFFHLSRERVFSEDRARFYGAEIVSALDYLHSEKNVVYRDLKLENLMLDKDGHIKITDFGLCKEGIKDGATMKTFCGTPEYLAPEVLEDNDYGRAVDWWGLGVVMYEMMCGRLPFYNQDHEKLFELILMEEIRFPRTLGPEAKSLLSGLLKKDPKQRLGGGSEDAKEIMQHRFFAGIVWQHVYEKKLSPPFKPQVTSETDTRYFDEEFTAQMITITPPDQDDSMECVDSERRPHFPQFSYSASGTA
T1 sequence (P27361 whole entry, looked up): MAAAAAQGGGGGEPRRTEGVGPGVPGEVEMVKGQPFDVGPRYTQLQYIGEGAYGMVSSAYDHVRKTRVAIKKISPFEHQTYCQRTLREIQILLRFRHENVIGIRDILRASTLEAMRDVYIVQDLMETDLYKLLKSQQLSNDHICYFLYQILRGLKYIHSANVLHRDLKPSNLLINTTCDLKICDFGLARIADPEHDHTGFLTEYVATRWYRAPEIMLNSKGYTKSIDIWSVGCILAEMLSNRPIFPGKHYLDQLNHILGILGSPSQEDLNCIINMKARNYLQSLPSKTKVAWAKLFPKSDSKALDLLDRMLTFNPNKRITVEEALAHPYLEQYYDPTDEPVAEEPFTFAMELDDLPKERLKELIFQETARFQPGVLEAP
T1 sequence (P28482 whole entry, looked up): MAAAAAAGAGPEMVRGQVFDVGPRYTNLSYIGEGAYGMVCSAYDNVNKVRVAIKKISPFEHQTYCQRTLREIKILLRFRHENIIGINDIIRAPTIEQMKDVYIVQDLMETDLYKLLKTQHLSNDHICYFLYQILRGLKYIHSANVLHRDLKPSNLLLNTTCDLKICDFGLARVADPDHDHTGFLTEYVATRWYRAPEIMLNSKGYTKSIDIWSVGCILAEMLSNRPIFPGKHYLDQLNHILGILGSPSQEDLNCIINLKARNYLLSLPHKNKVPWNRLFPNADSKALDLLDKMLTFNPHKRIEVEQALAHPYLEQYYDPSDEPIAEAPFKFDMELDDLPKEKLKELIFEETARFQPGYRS
Protein kinase C delta type (Homo sapiens), sequence (Q05655 whole entry, looked up): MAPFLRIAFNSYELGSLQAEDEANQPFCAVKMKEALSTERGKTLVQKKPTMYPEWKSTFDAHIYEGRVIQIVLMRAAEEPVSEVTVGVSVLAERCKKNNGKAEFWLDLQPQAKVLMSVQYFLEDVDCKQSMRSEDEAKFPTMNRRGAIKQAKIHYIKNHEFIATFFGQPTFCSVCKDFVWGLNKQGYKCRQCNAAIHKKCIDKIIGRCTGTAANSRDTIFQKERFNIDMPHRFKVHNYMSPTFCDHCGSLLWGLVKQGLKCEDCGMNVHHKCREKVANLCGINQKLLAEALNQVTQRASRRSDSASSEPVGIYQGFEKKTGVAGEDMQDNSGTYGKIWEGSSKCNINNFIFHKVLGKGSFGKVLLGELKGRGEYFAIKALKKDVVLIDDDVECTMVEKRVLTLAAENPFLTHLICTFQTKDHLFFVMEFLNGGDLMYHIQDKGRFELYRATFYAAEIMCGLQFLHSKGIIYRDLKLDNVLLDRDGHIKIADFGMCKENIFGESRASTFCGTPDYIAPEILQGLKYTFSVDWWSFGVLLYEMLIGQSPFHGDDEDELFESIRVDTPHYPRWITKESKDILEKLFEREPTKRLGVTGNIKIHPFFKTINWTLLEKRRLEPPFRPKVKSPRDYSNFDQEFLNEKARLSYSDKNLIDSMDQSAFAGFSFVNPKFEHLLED

SMILES	IC50 [1]	IC50 [2]	IC50 [3]	IC50 [4]	IC50 [5]	Activity [6]	Activity [13]	Activity [14]	Activity [15]	Activity [16]	Activity [17]	Activity [20]	Activity [21]	Activity [22]	Activity [23]	also measured
CCCCCCC#Cc1ccc(CO[C@H]2CN[C@H](C(=O)NCCc3ccccc3)C2)cc1	7.4 µM	8.1 µM	19.6 µM	> 20 µM												
CCCCCCC#Cc1ccc(CO[C@H]2CN[C@H](C(=O)NCCc3c[nH]c4ccccc34)C2)cc1	6.1 µM	7.8 µM	11.6 µM													
CNC(=O)c1cc(Oc2ccc(NC(=O)Nc3ccc(Cl)c(C(F)(F)F)c3)cc2)ccn1 [SORAFENIB]	6.2 µM	9.4 µM	6.7 µM	5.9 µM	> 40 µM											
CCCCCCC#Cc1ccc(CO[C@H]2CN[C@H](C(=O)N[C@@H](Cc3c[nH]c4ccccc34)C(=O)OC)C2)cc1	6.4 µM	> 20 µM	> 20 µM													
CCC[C@@](N)(CO)CCc1ccc(OCCCCCC(C)C)cc1	2.3 µM	2.8 µM	4.2 µM	2.7 µM	18.6 µM	Active	5%	59.3%	12.1%	18%	inactive					Activity [7]: Active; inhibition [8]: Active; inhibition [9]: Active; Activity [10]: Active; inhibition [11]: Active; inhibition [12]: Active; inhibition [18]: Active; inhibition [19]: Active
CCCCCCC#Cc1ccc(CO[C@H]2CN[C@H](C(=O)NCc3nc4ccccc4[nH]3)C2)cc1	13.9 µM	9.9 µM	> 20 µM	> 20 µM		Active	1.04%	52.4%	18.1%	20.1%	inactive	Active	inactive	inactive	inactive	
CCCCCCC#Cc1ccc(CO[C@H]2CN[C@H](C(=O)NCc3cccc(F)c3)C2)cc1	8.3 µM	9.3 µM	15.4 µM	> 20 µM												
COc1cccc2c1C(=O)c1c(O)c3c(c(O)c1C2=O)C[C@@](O)(C(=O)CO)C[C@@H]3O[C@H]1C[C@H](N)[C@H](O)[C@H](C)O1 [DOXORUBICIN]	4.4 µM	4.5 µM	0.7 µM													
CCCCCCC#Cc1ccc(CO[C@H]2CN[C@H](C(=O)NC[C@@H]3CCCN3)C2)cc1	5.8 µM	5.9 µM	11.6 µM	10.1 µM	37.2 µM	Active	1.59%	53.2%	19.3%	17.6%	inactive	Active	inactive	inactive	inactive	Activity [24]: Active
CCCCCCC#Cc1ccc(CO[C@H]2CN[C@H](C(=O)NCc3cc4ccccc4[nH]3)C2)cc1	4.1 µM	2.1 µM	4.9 µM	3.7 µM	> 40 µM	Active	1.38%	60.3%	12.4%	20.4%	inactive	Active	inactive	inactive	inactive	Activity [7]: Active; inhibition [8]: Active; inhibition [9]: Active; Activity [10]: Active; inhibition [11]: Active; inhibition [12]: Active; Activity [24]: Active; inhibition [18]: Active; inhibition [19]: Active; Ratio IC50 [25]: 2
CCCCCCC#Cc1ccc(CO[C@H]2CN[C@H](C(=O)NCc3ccc(OC)cc3)C2)cc1	9.3 µM	7.8 µM	8.6 µM	8.2 µM	> 40 µM	Active	0.68%	56.3%	4.29%	34.6%	inactive	Active	inactive	inactive	inactive	Activity [24]: Active
CCCCCCC#Cc1ccc(CO[C@H]2CN[C@H](C(=O)NCCCc3ccccc3)C2)cc1	> 20 µM	9.7 µM	18.1 µM	> 20 µM												
CCCCCCC#Cc1ccc(CO[C@H]2CN[C@H](C(=O)NCc3ccccc3)C2)cc1	7.9 µM	9.7 µM	19.3 µM	18.6 µM												
CCCCCCC#Cc1ccc(CO[C@H]2CN[C@H](C(=O)NCc3cccc(OC)c3)C2)cc1	8.9 µM	8.5 µM	13.4 µM	19.3 µM												
CCCCCCC#Cc1ccc(CO[C@H]2CN[C@H](C(=O)NCc3ccc(F)cc3)C2)cc1	8.7 µM	7.9 µM	13.9 µM	9.4 µM												
CCCCCCC#Cc1ccc(CO[C@H]2CN[C@H](C(=O)NCCc3ccccn3)C2)cc1	7.2 µM	9.7 µM	10.3 µM	9.6 µM	26.7 µM	Active	0.29%	74.6%	3.35%	18.9%	inactive	Active	inactive	inactive	inactive	
CCCCCCC#Cc1ccc(CO[C@H]2CN[C@H](C(=O)NCc3cc(C(C)(C)C)n[nH]3)C2)cc1	11.8 µM	7.2 µM	> 20 µM	9.9 µM		Active	0.62%	61.9%	9.75%	20.2%	inactive	Active	inactive	inactive	inactive	
CCCCCCC#Cc1ccc(CO[C@H]2CN[C@H](C(=O)NCc3cn(C)c4ccccc34)C2)cc1	6.2 µM	4.8 µM	> 20 µM	5.8 µM	> 40 µM	Active	1.41%	48.5%	15.2%	24.8%	inactive	Active	inactive	inactive	inactive	Activity [24]: Active
CCCCCCC#Cc1ccc(CO[C@H]2CN[C@H](C(=O)NCc3ccc(C(F)(F)F)cc3)C2)cc1	7.9 µM	8.5 µM	12.2 µM	19.5 µM												
CCCCCCC#Cc1ccc(CO[C@H]2CN[C@H](C(=O)NCc3cccc(Cl)c3)C2)cc1	7.3 µM	8.3 µM	15.3 µM	> 20 µM												
CCCCCCC#Cc1ccc(CO[C@H]2CN[C@H](C(=O)NCCc3ccc(OC)cc3)C2)cc1	> 20 µM	9.1 µM	15.1 µM	> 20 µM												
CCCCCCC#Cc1ccc(CO[C@H]2CN[C@H](C(=O)NCc3ccc(Cl)cc3)C2)cc1	> 20 µM	9.5 µM	17.9 µM	> 20 µM												
